# Laboratory results from US8088930B2, “Benzimidazole derivatives” (Hoffmann-La Roche Inc., priority 2008, dated 2012).
# Target: T1, FXR ligand binding domain (GST-FXR LBD fusion protein, human FXR aa 193-473) (Homo sapiens, UniProt Q96RI1)
# T1 construct: fused on or other part: Glutathione-S-transferase (GST) fused N-terminally to the FXR LBD, used to capture the protein on glutathione SPA beads
# T1 sequence (Q96RI1 211-486 limits assumed): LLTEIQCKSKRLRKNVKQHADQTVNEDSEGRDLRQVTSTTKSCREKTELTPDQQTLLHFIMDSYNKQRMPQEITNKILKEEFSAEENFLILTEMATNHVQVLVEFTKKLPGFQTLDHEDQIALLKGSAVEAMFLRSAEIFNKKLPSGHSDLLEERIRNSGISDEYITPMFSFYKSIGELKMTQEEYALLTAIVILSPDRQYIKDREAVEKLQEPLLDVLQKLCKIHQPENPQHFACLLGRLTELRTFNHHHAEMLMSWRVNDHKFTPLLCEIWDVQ
# Assay: Radioligand binding assay (scintillation proximity, radioligand displacement)
# Settings: 40 nM GST-FXR LBD on SPA beads, test compound 6×10^−9 M to 2.5×10^−5 M, read-out: h-IC50 Binding
# Summary of the method: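 40 nM GST-FXR LBD, E. coli-expressed, bound to glutathione yttrium silicate SPA beads in 50 mM Hepes pH 7.4, 10 mM NaCl, 5 mM MgCl2, 0.01% CHAPS. Test compounds displace radioligand (e.g. 20 nM benzimidazolyl-acetamide ligand); bound ligand measured by scintillation proximity counting.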
row,SMILES,IC50
1,"COc1ccc(-c2nc3cc(F)c(F)cc3n2C(CCc2ccc(C(=O)O)cc2)C2CCCCC2)c(OC)n1 (single isomer, unassigned; (-)) [Example 146, (−)-4-{3-Cyclohexyl-3-[2-(2,6-dimethoxy-pyridin-3-yl)-5,6-difluoro-benzoimidazol-1-yl]-propyl}-benzoic acid]",1 nM
2,"Fc1cc2nc(-c3ccc(Cl)cc3)n([C@H](COCC3CCCCC3)C3CCCCC3)c2cc1F [Example 3, (+)-2-(4-Chloro-phenyl)-1-((S)-1-cyclohexyl-2-cyclohexylmethoxy-ethyl)-5,6-difluoro-1H-benzoimidazole]",32100 nM
3,"O=C(O)c1ccc(OCC(C2CCCCC2)n2c(-c3ccc(Cl)cc3)nc3cc(F)c(F)cc32)cc1 (stereo not shown) [Example 4, 4-{2-[2-(4-Chloro-phenyl)-5,6-difluoro-benzoimidazol-1-yl]-2-cyclohexyl-ethoxy}-benzoic acid]",70 nM
4,"O=C(O)c1ccccc1OCC(C1CCCCC1)n1c(-c2ccc(Cl)cc2)nc2cc(F)c(F)cc21 (stereo not shown) [Example 14, 2-{2-[2-(4-Chloro-phenyl)-5,6-difluoro-benzoimidazol-1-yl]-2-cyclohexyl-ethoxy}-benzoic acid]",2000 nM
5,"Fc1cc2nc(-c3ccc(Cl)cc3)n(C(COc3ccccn3)C3CCCCC3)c2cc1F (stereo not shown) [Example 29, 2-(4-Chloro-phenyl)-1-[1-cyclohexyl-2-(pyridin-2-yloxy)-ethyl]-5,6-difluoro-1H-benzoimidazole]",200 nM
6,"O=C(O)c1ccc(OCC(C2CCCCC2)n2c(-c3ccc(Cl)cc3)nc3ccccc32)cc1 (stereo not shown) [Example 32, 4-{2-[2-(4-Chloro-phenyl)-benzoimidazol-1-yl]-2-cyclohexyl-ethoxy}-benzoic acid]",1000 nM
7,"O=C(O)c1ccc(OCC(C2CCCCC2)n2c(-c3ccc(Cl)cc3)nc3ccccc32)c(F)c1 (stereo not shown) [Example 33, 4-{2-[2-(4-Chloro-phenyl)-benzoimidazol-1-yl]-2-cyclohexyl-ethoxy}-3-fluoro-benzoic acid]",500 nM
8,"Fc1cc2nc(-c3ccc(Cl)cc3)n(C(COc3ccccc3F)C3CCCCC3)c2cc1F (stereo not shown) [Example 34, 2-(4-Chloro-phenyl)-1-[1-cyclohexyl-2-(2-fluoro-phenoxy)-ethyl]-5,6-difluoro-1H-benzoimidazole]",40 nM
9,"Fc1cc2nc(-c3ccc(Cl)cc3)n(C(COc3cccnc3)C3CCCCC3)c2cc1F (stereo not shown) [Example 35, 2-(4-Chloro-phenyl)-1-[1-cyclohexyl-2-(pyridin-3-yloxy)-ethyl]-5,6-difluoro-1H-benzoimidazole]",200 nM
10,"Fc1cc2nc(-c3ccc(Cl)cc3)n(C(COc3ccncc3)C3CCCCC3)c2cc1F (stereo not shown) [Example 36, 2-(4-Chloro-phenyl)-1-[1-cyclohexyl-2-(pyridin-4-yloxy)-ethyl]-5,6-difluoro-1H-benzoimidazole]",90 nM
11,"Fc1cc2nc(-c3ccc(Cl)cc3)n(C(COc3ccccc3)C3CCCCC3)c2cc1F (stereo not shown) [Example 38, 2-(4-Chloro-phenyl)-1-(1-cyclohexyl-2-phenoxy-ethyl)-5,6-difluoro-1H-benzoimidazole]",100 nM
12,"COc1ccc(-c2nc3cc(F)c(F)cc3n2C(COc2ccc(C(=O)O)cc2F)C2CCCCC2)c(OC)n1 (stereo not shown) [Example 46, 4-{2-Cyclohexyl-2-[2-(2,6-dimethoxy-pyridin-3-yl)-5,6-difluoro-benzoimidazol-1-yl]-ethoxy}-3-fluoro-benzoic acid]",100 nM
13,"O=C(O)C1(Oc2ccc(OCC(C3CCCCC3)n3c(-c4ccc(Cl)cc4)nc4cc(F)c(F)cc43)nc2)CC1 (stereo not shown) [Example 50, 1-(6-{2-[2-(4-Chloro-phenyl)-5,6-difluoro-benzoimidazol-1-yl]-2-cyclohexyl-ethoxy}-pyridin-3-yloxy)-cyclopropanecarboxylic acid]",100 nM

# Next, values leading:
row,IC50,SMILES
1,20 nM,"Cc1cc(C(=O)O)ccc1OCC(C1CCCCC1)n1c(-c2ccc(Cl)cc2)nc2cc(F)c(F)cc21 (stereo not shown) [Example 11, 4-{2-[2-(4-Chloro-phenyl)-5,6-difluoro-benzoimidazol-1-yl]-2-cyclohexyl-ethoxy}-3-methyl-benzoic acid]"
2,70 nM,"O=C(O)c1cccc(OCC(C2CCCCC2)n2c(-c3ccc(Cl)cc3)nc3cc(F)c(F)cc32)c1 (stereo not shown) [Example 15, 3-{2-[2-(4-Chloro-phenyl)-5,6-difluoro-benzoimidazol-1-yl]-2-cyclohexyl-ethoxy}-benzoic acid]"
3,200 nM,"Cc1ccc(C(=O)O)cc1OCC(C1CCCCC1)n1c(-c2ccc(Cl)cc2)nc2cc(F)c(F)cc21 (stereo not shown) [Example 16, 3-{2-[2-(4-Chloro-phenyl)-5,6-difluoro-benzoimidazol-1-yl]-2-cyclohexyl-ethoxy}-4-methyl-benzoic acid]"
4,200 nM,"Cc1c(OCC(C2CCCCC2)n2c(-c3ccc(Cl)cc3)nc3cc(F)c(F)cc32)cccc1C(=O)O (stereo not shown) [Example 17, 3-{2-[2-(4-Chloro-phenyl)-5,6-difluoro-benzoimidazol-1-yl]-2-cyclohexyl-ethoxy}-2-methyl-benzoic acid]"
5,1300 nM,"O=C(O)c1ccc(OCC(C2CCCCC2)n2c(-c3ccc(Cl)cc3)nc3cc(F)c(F)cc32)cn1 (stereo not shown) [Example 18, 5-{2-[2-(4-Chloro-phenyl)-5,6-difluoro-benzoimidazol-1-yl]-2-cyclohexyl-ethoxy}-pyridine-2-carboxylic acid]"
6,50 nM,"O=C(O)c1ccc(OCC(C2CCCCC2)n2c(-c3ccc(Cl)cc3)nc3cc(F)c(F)cc32)nc1 (stereo not shown) [Example 19, 6-{2-[2-(4-Chloro-phenyl)-5,6-difluoro-benzoimidazol-1-yl]-2-cyclohexyl-ethoxy}-nicotinic acid]"
7,30 nM,"O=C(O)c1cnc(OCC(C2CCCCC2)n2c(-c3ccc(Cl)cc3)nc3cc(F)c(F)cc32)c(Cl)c1 (stereo not shown) [Example 22, 5-Chloro-6-{2-[2-(4-chloro-phenyl)-5,6-difluoro-benzoimidazol-1-yl]-2-cyclohexyl-ethoxy}-nicotinic acid]"
8,800 nM,"Cc1nc(C(=O)O)ncc1OCC(C1CCCCC1)n1c(-c2ccc(Cl)cc2)nc2cc(F)c(F)cc21 (stereo not shown) [Example 25, 5-{2-[2-(4-Chloro-phenyl)-5,6-difluoro-benzoimidazol-1-yl]-2-cyclohexyl-ethoxy}-4-methyl-pyrimidine-2-carboxylic acid]"
9,20 nM,"O=C(O)c1cnc(OCC(C2CCCCC2)n2c(-c3ccc(Cl)cc3)nc3cc(F)c(F)cc32)c2ccsc12 (stereo not shown) [Example 26, 4-{2-[2-(4-Chloro-phenyl)-5,6-difluoro-benzoimidazol-1-yl]-2-cyclohexyl-ethoxy}-thieno[3,2-c]pyridine-7-carboxylic acid]"
10,500 nM,"O=C(O)c1cccc(OCC(C2CCCCC2)n2c(-c3ccc(Cl)cc3)nc3cc(F)c(F)cc32)n1 (stereo not shown) [Example 30, 6-{2-[2-(4-Chloro-phenyl)-5,6-difluoro-benzoimidazol-1-yl]-2-cyclohexyl-ethoxy}-pyridine-2-carboxylic acid]"
11,600 nM,"COc1cc(C(=O)O)cc(OCC(C2CCCCC2)n2c(-c3ccc(Cl)cc3)nc3cc(F)c(F)cc32)n1 (stereo not shown) [Example 31, 2-{2-[2-(4-Chloro-phenyl)-5,6-difluoro-benzoimidazol-1-yl]-2-cyclohexyl-ethoxy}-6-methoxy-isonicotinic acid]"
12,400 nM,"O=C(O)c1ccnc(OCC(C2CCCCC2)n2c(-c3ccc(Cl)cc3)nc3cc(F)c(F)cc32)c1 (stereo not shown) [Example 37, 2-{2-[2-(4-Chloro-phenyl)-5,6-difluoro-benzoimidazol-1-yl]-2-cyclohexyl-ethoxy}-isonicotinic acid]"
13,30 nM,"O=C(O)c1ccc(OCC(C2CCCCC2)n2c(-c3ccc(Cl)cc3)nc3cc(F)c(F)cc32)c(C(F)(F)F)c1 (stereo not shown) [Example 39, 4-{2-[2-(4-Chloro-phenyl)-5,6-difluoro-benzoimidazol-1-yl]-2-cyclohexyl-ethoxy}-3-trifluoromethyl-benzoic acid]"
14,200 nM,"O=C(O)c1c(F)cc(OCC(C2CCCCC2)n2c(-c3ccc(Cl)cc3)nc3cc(F)c(F)cc32)cc1F (stereo not shown) [Example 42, 4-{2-[2-(4-Chloro-phenyl)-5,6-difluoro-benzoimidazol-1-yl]-2-cyclohexyl-ethoxy}-2,6-difluoro-benzoic acid]"
15,20 nM,"O=C(O)COc1ccc(OCC(C2CCCCC2)n2c(-c3ccc(Cl)cc3)nc3cc(F)c(F)cc32)nc1 (stereo not shown) [Example 45, (6-{2-[2-(4-Chloro-phenyl)-5,6-difluoro-benzoimidazol-1-yl]-2-cyclohexyl-ethoxy}-pyridin-3-yloxy)-acetic acid]"
16,30 nM,"Cc1cc(C(=O)O)cc(C)c1OCC(C1CCCCC1)n1c(-c2ccc(Cl)cc2)nc2cc(F)c(F)cc21 (stereo not shown) [Example 53, 4-{2-[2-(4-Chloro-phenyl)-5,6-difluoro-benzoimidazol-1-yl]-2-cyclohexyl-ethoxy}-3,5-dimethyl-benzoic acid]"

# Same assay, conditions: h-IC50 Binding, 40 nM GST-FXR LBD on SPA beads, test compound 6×10^−9 M to 2.5×10^−5 M
row,SMILES,IC50
1,"O=C(O)c1ccc(OCC(C2CCCCC2)n2c(-c3ccc(Cl)cc3)nc3cc(F)c(F)cc32)c(F)c1 (stereo not shown) [Example 7, 4-{2-[2-(4-Chloro-phenyl)-5,6-difluoro-benzoimidazol-1-yl]-2-cyclohexyl-ethoxy}-3-fluorobenzoic acid]",20 nM
2,"O=C(O)c1ccc(OCC(C2CCCCC2)n2c(-c3ccc(Cl)cc3)nc3cc(F)c(F)cc32)c(Cl)c1 (stereo not shown) [Example 10, 3-Chloro-4-{2-[2-(4-chloro-phenyl)-5,6-difluoro-benzoimidazol-1-yl]-2-cyclohexyl-ethoxy}-benzoic acid]",30 nM
